# Reference: PubChem BioAssay (NCI)
# Where “and” joins values, the source holds several entries; their conditions need not be identical. Identical values can stand only once.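 Tested at 5 concentrations; 48 h exposure; 96-well plates; endpoints linearly interpolated, else capped at highest concentration. GI50: concentration for 50% inhibition of growth. TGI is the concentration that stops growth completely.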
# Key:
# Assay in all cases: NCI anticancer screen, dose series, 48 h
# 786-0 renal = tested on: 786-0 renal
# A549 NSCLC = tested on: A549 NSCLC
# BT-549 breast = tested on: BT-549 breast
# HCC-2998 colon = tested on: HCC-2998 colon
# MDA-MB-231 breast = tested on: MDA-MB-231 breast
# RPMI-8226 leukemia = tested on: RPMI-8226 leukemia
# SR leukemia = tested on: SR leukemia
# TK-10 renal = tested on: TK-10 renal
# UACC-257 melanoma = tested on: UACC-257 melanoma
# M14 melanoma = tested on: M14 melanoma
Compound,GI50 (786-0 renal),TGI (786-0 renal) [µM],GI50 (A549 NSCLC),TGI (A549 NSCLC) [µM],GI50 (BT-549 breast) [µM],TGI (BT-549 breast) [µM],GI50 (HCC-2998 colon),TGI (HCC-2998 colon) [µM],GI50 (MDA-MB-231 breast),TGI (MDA-MB-231 breast) [µM],GI50 (RPMI-8226 leukemia),TGI (RPMI-8226 leukemia) [µM],GI50 (SR leukemia),TGI (SR leukemia) [µM],GI50 (TK-10 renal) [µM],TGI (TK-10 renal) [µM],GI50 (UACC-257 melanoma) [µM],TGI (UACC-257 melanoma) [µM],GI50 (M14 melanoma) [µM],TGI (M14 melanoma) [µM]
C[C@@H](Oc1cc(-n2cnc3ccc(OC4CCN(C)CC4)cc32)sc1C(N)=O)c1ccccc1Cl,0.0951 µM,3.48,0.0183 µM,3,0.168,5.28,0.0234 µM,2.98,0.0225 µM,0.53,0.0842 µM,6.66,0.0103 µM,0.532,1.79,5.75,0.0249,5.4,–,–
CNC(=O)c1ccc(N2C(=S)N(c3cnc(C#N)c(C(F)(F)F)c3)C(=O)C23CCC3)cc1F,> 100 µM,> 100,> 100 µM,> 100,> 77,> 100,> 100 µM,> 100,> 100 µM,> 100,59.3 µM,> 100,51.5 µM,> 100,> 100,> 100,> 95,> 100,> 100,> 100
O=C(O)CSc1n[nH]c(=O)[nH]c1=O,–,> 100,–,> 100,–,> 100,–,–,–,> 100,–,> 100,–,> 100,–,–,–,–,–,> 100
COc1ccc(C2(Cl)c3ccccc3N(c3ccccc3)c3ccccc32)cc1,0.618 µM,2.06,0.407 µM,2.9,0.211,1.42,0.357 µM,1.53,0.759 µM,2.54,0.218 µM,1.36,0.357 µM,3.28,0.516,3.21,0.797,3.67,0.224,1.38
CCOC(=O)C1=CCCC[C@H]1S(=O)(=O)Nc1ccc(F)cc1Cl,32.9 µM,> 100,35.4 µM,> 100,19.6,61,31.2 µM,> 100,28.4 µM,98.6,20.5 µM,67.6,23.9 µM,> 100,33,> 100,35.8,> 100,25.5,96.7
COc1ccccc1Nc1cc(O)c2c(=O)cc(-c3ccccc3)oc2c1,5.15 µM,27,5.16 µM,> 100,4.96,37.2,6.07 µM,> 100,3.96 µM,18.4,4.51 µM,> 100,0.529 µM,> 100,10.4,28.6,6.72,63.5,–,–
Oc1c(Cl)cc(Cl)c(Cl)c1CNCCNCc1c(O)c(Cl)cc(Cl)c1Cl,1.48 µM,8.43,1.11 µM,8.21,2.67,10,2.69 µM,> 50,2.27 µM,16.6,1.51 µM,> 50,0.622 µM,> 50,2.02,11.2,1.76,9.88,1.22,26
CC(C)C[C@H](NC(=O)CNC(=O)c1cc(Cl)ccc1Cl)B(O)O,0.0278 µM,0.814,0.046 µM,7.6,< 0.0145,0.137,0.0199 µM,0.0436,0.0302 µM,0.14,< 0.01 µM,0.0162,< 0.0152 µM,0.385,< 0.0138,0.0517,0.0153,0.0492,0.0202,–
Cc1onc(-c2ccccc2)c1C(=O)N/N=C/c1cc(Cl)cc(Cl)c1O,5.01 µM,50.7,5.07 µM,> 100,12.1,49.4,4.13 µM,18.2,4.27 µM,35.7,5.61 µM,49.7,3.74 µM,25.1,5.01,> 100,3.47,27.3,3.74,46.3
C=C(c1ccc(OC)c(/C=C/C(=O)c2ccc3c(c2)OCO3)c1)c1cc(OC)c(OC)c(OC)c1,2.16 µM,5.61,3.54 µM,> 100,2.15,7.27,–,–,5.97 µM,> 100,1.56 µM,7.39,0.907 µM,> 100,4.79,> 100,6.69,> 100,–,–
O=C1N[C@@H]2[C@@H](O)[C@@H](O)[C@H](O)C[C@H]2c2cc3c(c(O)c21)OCCO3,0.293 µM,2.08,0.354 µM,5.58,0.301,1.25,0.227 µM,0.765,0.236 µM,1.07,0.256 µM,0.91,0.245 µM,27.4,0.684,5.09,0.34,1.97,0.246,1.04
COc1ccc2c(c1)C(=O)c1c-2n(CCCN(C)C)c(=O)c2ccccc12,0.176 µM,2.3,0.119 µM,0.559,0.521,3.11,0.187 µM,0.955,1.86 µM,12.9,0.165 µM,0.532,–,11.3,0.722,9.32,0.929,6.22,0.483,1.87
Cc1c(-c2cnccn2)ssc1=S,–,> 77.4,–,> 100,–,68.5,–,> 100,–,> 100,–,> 100,–,> 100,–,98.7,–,38.1,–,> 100
CN(Cc1ccccc1)Cn1ccnc1,–,> 100,–,> 100,–,> 100,–,–,–,98.1,–,> 78.1,–,> 66.8,–,> 100,–,47.4,–,39.6
O=C1NC(=C(Cl)Cl)/C(=N/S(=O)(=O)N2CCCCC2)N1,2.79 µM,7.74,6.85 µM,22.2,2.33,5.62,2.28 µM,5.22,1.85 µM,3.42,0.553 µM,4.23,1.5 µM,3.89,4.82,> 100,2.43,7.07,2.06,4.54
Cc1ccc(O)c(NC(=O)c2cccc(Nc3ccnc(C(F)(F)F)c3)c2)c1,8.22 µM,51.5,5.09 µM,28,3.18,21.6,10.5 µM,23.2,11.6 µM,44.8,–,–,1.02 µM,16.4,19.1,73.5,–,–,7.55,22.3
OCC1C(OCc2ccccc2)C(OCc2ccccc2)C(OCc2ccccc2)CN1Cc1ccccc1 (stereo not drawn),–,> 100,–,> 100,–,–,–,> 100,–,> 100,–,–,–,> 100,–,> 100,–,81,–,> 100
Cc1cc2c(C(=O)NC[C@H](C)c3ccccc3)c(O)c(O)cc2c(O)c1-c1c(C)cc2c(C(=O)NC[C@H](C)c3ccccc3)c(O)c(O)cc2c1O,0.368 µM,1.8,0.0693 µM,3.23,0.0437,2.03,0.932 µM,3.08,0.677 µM,6.53,0.185 µM,5.41,0.376 µM,4.51,0.298,10.6,1.37,7.23,0.438,5.72
CN[C@H]1CN(c2ccc3c(=O)c(C(=O)O)cn(-c4nccs4)c3n2)C[C@@H]1OC,0.426 µM,6.18,0.511 µM,2.76,0.758,3.05,0.856 µM,3.58,1.52 µM,6.92,1.08 µM,> 24,0.0508 µM,0.777,1.1,4.13,1.11,2.83,0.783,2.34
Cc1cnc2n1S(=O)(=O)c1cc(C(=O)Nc3cccc4nsnc34)c(Cl)cc1S2,> 100 µM,> 100,46.9 µM,> 100,> 100,> 100,–,–,12.4 µM,30.3,17.4 µM,39.7,29.1 µM,> 100,19.8,40,19.1,38.3,52.2,> 100
CC(C)(C)C(=O)OCOP(=O)(NCc1ccccc1)C1CCCN(O)C1=O (stereo not drawn),3.15 µM,> 100,2.79 µM,> 100,5.81,53.4,2.37 µM,12,2.3 µM,19.9,2.25 µM,7.28,0.985 µM,> 100,3.12,43.2,5.11,55.4,2.91,18.7
Oc1ccc(C=Nc2ccccc2O)cc1,–,67.4,–,> 100,–,> 100,–,> 100,–,> 100,–,> 100,–,> 100,–,> 100,–,65.3,–,> 100
COC(COC(N)=O)C1=C(N2CC2)C(=O)C(C)=C(N2CC2)C1=O (stereo not drawn),–,0.186,–,2.21,–,0.304,–,0.311,–,0.859,–,3.16,–,2.19,–,2.64,–,0.579,–,0.147
CC[C@H](C)[C@H](NC(=O)[C@H]1CCCCN1C)C(=O)N(C)[C@H](C[C@@H](OC(C)=O)c1cccc(C(=O)N[C@@H](Cc2ccccc2)C[C@H](C)C(=O)OC)n1)C(C)C,0.00526 µM and 0.00425 µM,18.3,0.0377 µM and 0.00974 µM,> 25,0.0025,0.222,0.00362 µM and 0.0025 µM,> 25,0.00427 µM and 0.00267 µM,0.85,0.00268 µM and 0.0025 µM,14.5,0.00055 µM and 0.0025 µM,> 25,–,> 25,–,–,0.00227,0.0128
C=CN(C(=O)N1CCN(c2cc3c(cc2F)c(=O)c(C(=O)O)cn3C2CC2)CC1)c1nc(-c2ccc(OC)cc2)cs1,3.37 µM,23.1,3.39 µM,> 100,2.39,7.52,5.12 µM,> 100,–,–,2.75 µM,> 100,2.69 µM,> 100,5.23,23.7,2.97,7.18,3.61,> 100
Cc1cc2nc(NCCN)n(Cc3ccc(F)c(Cl)c3)c2cc1C,10.2 µM,23.3,17.8 µM,32.2,14.8,30.2,1.82 µM,3.65,2.68 µM,9.44,3.95 µM,15.1,2.03 µM,6.04,16.9,31.2,–,–,2.52,7.07
CNC(=O)c1c(C)oc2cc(Oc3ncnc4cc(OC)c(OC)cc34)ccc12,> 100 µM,> 100,> 100 µM,> 100,> 100,> 100,> 100 µM,> 100,> 100 µM,> 100,> 100 µM,> 100,> 100 µM,> 100,> 100,> 100,> 100,> 100,–,–
O=C(O)CCNCC(=O)O,–,> 100,–,> 100,–,> 100,–,–,–,> 100,–,> 100,–,> 100,–,> 100,–,> 100,–,> 100
